Measured values: BindingDB's records for doi:10.1021/jm0209984 (Universit&#224, 2003)

Test: Concentration required to achieve 50% protection of MT-4 cell from the HIV-1 induced cytopathogenicity was determined by the MTT method

Row | Structure (SMILES) | EC50 [µM]
1 | O=C1c2ccccc2C(=O)N1CCOC(=S)N(C(=O)c1ccco1)c1ccc(Cl)cc1 [O-2-(1,3-dioxoisoindolin-2-yl)ethyl 4-chlorophenyl(furan-2-carbonyl)carbamothioate] | 0.007
2 | O=C1c2ccccc2C(=O)N1CCOC(=S)N(C(=O)c1ccco1)c1ccc([N+](=O)[O-])cc1 [(Furan-2-carbonyl)-(4-nitro-phenyl)-thiocarbamic acid O-[2-(1,3-dioxo-1,3-dihydro-isoindol-2-yl)-ethyl] ester] | 0.008
3 | O=C(/C=C/c1ccccc1)N(C(=S)OCCc1ccccc1)c1ccccc1 [Phenyl-(3-phenyl-acryloyl)-thiocarbamic acid O-phenethyl ester] | 4.5
4 | O=C(c1ccccc1)N(C(=S)OCCOc1ccccc1)C1CCCCC1 [Benzoyl-cyclohexyl-thiocarbamic acid O-(2-phenoxy-ethyl) ester] | 200
5 | O=C(c1ccccc1)N(C(=S)OCc1ccco1)c1ccccc1 [Benzoyl-phenyl-thiocarbamic acid O-furan-2-ylmethyl ester] | > 38.3
6 | O=C1c2ccccc2C(=O)N1CCOC(=S)N(C(=O)c1ccc(Cl)cc1)c1ccc(Cl)cc1 [O-2-(1,3-dioxoisoindolin-2-yl)ethyl 4-chlorobenzoyl(4-chlorophenyl)carbamothioate] | 0.025
7 | O=C1c2ccccc2C(=O)N1CCOC(=S)N(C(=O)c1cccs1)c1cccc(Cl)c1 [(3-Chloro-phenyl)-(thiophene-2-carbonyl)-thiocarbamic acid O-[2-(1,3-dioxo-1,3-dihydro-isoindol-2-yl)-ethyl] ester] | 6
8 | CCc1ccccc1N(C(=O)c1cccs1)C(=S)OCCN1C(=O)c2ccccc2C1=O [(2-Ethyl-phenyl)-(thiophene-2-carbonyl)-thiocarbamic acid O-[2-(1,3-dioxo-1,3-dihydro-isoindol-2-yl)-ethyl] ester] | 11
9 | CCc1ccc(N(C(=O)c2ccco2)C(=S)OCCN2C(=O)c3ccccc3C2=O)cc1 [(4-Ethyl-phenyl)-(furan-2-carbonyl)-thiocarbamic acid O-[2-(1,3-dioxo-1,3-dihydro-isoindol-2-yl)-ethyl] ester] | 0.03
10 | CCCOC(=O)N(C(=S)OC(C)COc1ccccc1)c1ccccc1 (stereo not drawn) [O-(1-methyl-2-phenoxyethyl) O-propyl phenylimidothiodicarbonate] | 131
11 | COc1cc(C(=O)N(C(=S)OCCOc2ccccc2)c2ccccc2)cc(OC)c1OC [Phenyl-(3,4,5-trimethoxy-benzoyl)-thiocarbamic acid O-(2-phenoxy-ethyl) ester] | 9.6
12 | O=C(c1ccc(Cl)c([N+](=O)[O-])c1)N(C(=S)OCCOc1ccccc1)c1ccccc1 [(4-Chloro-3-nitro-benzoyl)-phenyl-thiocarbamic acid O-(2-phenoxy-ethyl) ester] | 7.6
13 | CC(=O)Oc1ccccc1C(=O)N(C(=S)OCCOc1ccccc1)c1ccccc1 [Acetic acid 2-(2-phenoxy-ethoxythiocarbonyl)-phenyl-aminocarbonyl)-phenyl ester] | 9.5
14 | COc1cccc(N(C(=O)c2cccs2)C(=S)OCCN2C(=O)c3ccccc3C2=O)c1 [(3-Methoxy-phenyl)-(thiophene-2-carbonyl)-thiocarbamic acid O-[2-(1,3-dioxo-1,3-dihydro-isoindol-2-yl)-ethyl] ester] | 3.5
15 | CC(COc1ccccc1)OC(=S)N(C(=O)c1ccco1)c1ccccc1 (stereo not drawn) [(Furan-2-carbonyl)-phenyl-thiocarbamic acid O-(1-methyl-2-phenoxy-ethyl) ester] | 1.3
16 | O=C1c2ccccc2C(=O)N1CCOC(=S)N(C(=O)c1cccs1)c1cccc(Br)c1 [(3-Bromo-phenyl)-(thiophene-2-carbonyl)-thiocarbamic acid O-[2-(1,3-dioxo-1,3-dihydro-isoindol-2-yl)-ethyl] ester] | 1.2
17 | O=C(c1ccccc1)N(C(=S)OCCc1ccccc1)c1ccccc1 [Benzoyl-phenyl-thiocarbamic acid O-phenethyl ester] | 4.2
18 | O=C1c2ccccc2C(=O)N1CCOC(=S)N(C(=O)c1cccs1)c1cccc([N+](=O)[O-])c1 [(3-Nitro-phenyl)-(thiophene-2-carbonyl)-thiocarbamic acid O-[2-(1,3-dioxo-1,3-dihydro-isoindol-2-yl)-ethyl] ester] | 0.38
19 | O=C(c1ccccc1)N(C(=S)OCCOc1ccccc1)c1ccccc1 [Benzoyl-phenyl-thiocarbamic acid O-(2-phenoxy-ethyl) ester] | 8
20 | Cc1ccc(N(C(=O)c2cccs2)C(=S)OCCN2C(=O)c3ccccc3C2=O)cc1 [(Thiophene-2-carbonyl)-p-tolyl-thiocarbamic acid O-[2-(1,3-dioxo-1,3-dihydro-isoindol-2-yl)-ethyl] ester] | 0.4
21 | O=C1c2ccccc2C(=O)N1CCOC(=S)N(C(=O)c1cccs1)c1ccc(F)cc1 [(4-Fluoro-phenyl)-(thiophene-2-carbonyl)-thiocarbamic acid O-[2-(1,3-dioxo-1,3-dihydro-isoindol-2-yl)-ethyl] ester] | 0.1
22 | O=C1c2ccccc2C(=O)N1CCOC(=S)N(C(=O)c1cccs1)c1ccc(I)cc1 [(4-Iodo-phenyl)-(thiophene-2-carbonyl)-thiocarbamic acid O-[2-(1,3-dioxo-1,3-dihydro-isoindol-2-yl)-ethyl] ester] | 0.01

Row | Structure (SMILES) | EC50 [µM]
23 | CC(COc1ccccc1)OC(=S)N(C(=O)c1cccs1)c1ccc([N+](=O)[O-])cc1 (stereo not drawn) [(4-Nitro-phenyl)-(thiophene-2-carbonyl)-thiocarbamic acid O-(1-methyl-2-phenoxy-ethyl) ester] | 6
24 | Cc1ccccc1N(C(=O)c1cccs1)C(=S)OCCN1C(=O)c2ccccc2C1=O [(Thiophene-2-carbonyl)-o-tolyl-thiocarbamic acid O-[2-(1,3-dioxo-1,3-dihydro-isoindol-2-yl)-ethyl] ester] | 11
25 | CC(COc1ccccc1)OC(=S)N(C(=O)c1cccs1)c1cccc(Cl)c1 (stereo not drawn) [(3-Chloro-phenyl)-(thiophene-2-carbonyl)-thiocarbamic acid O-(1-methyl-2-phenoxy-ethyl) ester] | 11
26 | CC(COc1ccccc1)OC(=S)N(C(=O)c1cccc([N+](=O)[O-])c1)c1ccccc1 (stereo not drawn) [(3-Nitro-benzoyl)-phenyl-thiocarbamic acid O-(1-methyl-2-phenoxy-ethyl) ester] | 3.6
27 | O=C(c1ccccc1)N(C(=S)OCCOc1ccccc1)c1ccc(F)cc1 [Benzoyl-(4-fluoro-phenyl)-thiocarbamic acid O-(2-phenoxy-ethyl) ester] | 4
28 | CCN(CC)c1ccc(N(C(=O)c2cccs2)C(=S)OCCN2C(=O)c3ccccc3C2=O)cc1 [(4-Diethylamino-phenyl)-(thiophene-2-carbonyl)-thiocarbamic acid O-[2-(1,3-dioxo-1,3-dihydro-isoindol-2-yl)-ethyl] ester] | 11
29 | O=C1c2ccccc2C(=O)N1CCOC(=S)N(C(=O)c1ccccc1)c1ccccc1 [Benzoyl-phenyl-thiocarbamic acid O-[2-(1,3-dioxo-1,3-dihydro-isoindol-2-yl)-ethyl] ester] | 0.4
30 | Cc1cccc(N(C(=O)c2cccs2)C(=S)OCCN2C(=O)c3ccccc3C2=O)c1 [(Thiophene-2-carbonyl)-m-tolyl-thiocarbamic acid O-[2-(1,3-dioxo-1,3-dihydro-isoindol-2-yl)-ethyl] ester] | 10
31 | O=C1c2ccccc2C(=O)N1CCOC(=S)N(C(=O)c1cccs1)c1cccc(F)c1 [(3-Fluoro-phenyl)-(thiophene-2-carbonyl)-thiocarbamic acid O-[2-(1,3-dioxo-1,3-dihydro-isoindol-2-yl)-ethyl] ester] | 11
32 | O=C(c1ccco1)N(C(=S)OCCc1ccccc1)c1ccccc1 [(Furan-2-carbonyl)-phenyl-thiocarbamic acid O-phenethyl ester] | 4.3
33 | O=C(c1ccc(Cl)cc1)N(C(=S)OCCOc1ccccc1)c1ccccc1 [(4-Chloro-benzoyl)-phenyl-thiocarbamic acid O-(2-phenoxy-ethyl) ester] | 10.3
34 | Cc1ccc(C(=O)N(C(=S)OCCOc2ccccc2)c2ccccc2)cc1 [(4-Methyl-benzoyl)-phenyl-thiocarbamic acid O-(2-phenoxy-ethyl) ester] | 9.9
35 | CC(COc1ccccc1)OC(=S)N(C(=O)c1cccs1)c1ccccc1 (stereo not drawn) [Phenyl-(thiophene-2-carbonyl)-thiocarbamic acid O-(1-methyl-2-phenoxy-ethyl) ester] | 2
36 | O=C(COc1ccccc1)N(C(=S)OCCOc1ccccc1)c1ccccc1 [(2-Phenoxy-acetyl)-phenyl-thiocarbamic acid O-(2-phenoxy-ethyl) ester] | 6
37 | O=C(/C=C/c1ccccc1)N(C(=S)OCCOc1ccccc1)c1ccccc1 [Phenyl-(3-phenyl-acryloyl)-thiocarbamic acid O-(2-phenoxy-ethyl) ester] | 7.7
38 | COc1ccccc1N(C(=O)c1cccs1)C(=S)OCCN1C(=O)c2ccccc2C1=O [(2-Methoxy-phenyl)-(thiophene-2-carbonyl)-thiocarbamic acid O-[2-(1,3-dioxo-1,3-dihydro-isoindol-2-yl)-ethyl] ester] | 11
39 | O=C1c2ccccc2C(=O)N1CCOC(=S)N(C(=O)c1ccccc1)c1ccc(Br)cc1 [Benzoyl-(4-bromo-phenyl)-thiocarbamic acid O-[2-(1,3-dioxo-1,3-dihydro-isoindol-2-yl)-ethyl] ester] | 0.035
40 | O=C1c2ccccc2C(=O)N1CCOC(=S)N(C(=O)c1cccs1)c1ccccc1Cl [(2-Chloro-phenyl)-(thiophene-2-carbonyl)-thiocarbamic acid O-[2-(1,3-dioxo-1,3-dihydro-isoindol-2-yl)-ethyl] ester] | 11
41 | O=C(c1cc(Cl)cc(Cl)c1)N(C(=S)OCCOc1ccccc1)c1ccccc1 [(3,5-Dichloro-benzoyl)-phenyl-thiocarbamic acid O-(2-phenoxy-ethyl) ester] | 8.8
42 | O=C(c1cccs1)N(C(=S)OCCOc1ccccc1)c1ccccc1 [Phenyl-(thiophene-2-carbonyl)-thiocarbamic acid O-(2-phenoxy-ethyl) ester] | 8.6
43 | CC(COc1ccccc1)OC(=S)N(C(=O)Oc1ccccc1)c1ccccc1 (stereo not drawn) [O-(1-methyl-2-phenoxyethyl) O-phenyl phenylimidothiodicarbonate] | > 200
